Results published in ChEMBL document CHEMBL3608230, “Design, synthesis and RON receptor tyrosine kinase inhibitory activity of new head groups analogs of LCRF-0004” (Bioorg Med Chem Lett, 2015).

Key:
[1] = molecular target: Macrophage-stimulating protein receptor (Homo sapiens, UniProt Q04912); assay: Inhibition of human RON
[2] = molecular target: Hepatocyte growth factor receptor (Homo sapiens, UniProt P08581); assay: Inhibition of c-Met phosphorylation in human MKN45 cells; format: cell-based, MKN-45
Chain of Hepatocyte growth factor receptor (P08581 whole entry): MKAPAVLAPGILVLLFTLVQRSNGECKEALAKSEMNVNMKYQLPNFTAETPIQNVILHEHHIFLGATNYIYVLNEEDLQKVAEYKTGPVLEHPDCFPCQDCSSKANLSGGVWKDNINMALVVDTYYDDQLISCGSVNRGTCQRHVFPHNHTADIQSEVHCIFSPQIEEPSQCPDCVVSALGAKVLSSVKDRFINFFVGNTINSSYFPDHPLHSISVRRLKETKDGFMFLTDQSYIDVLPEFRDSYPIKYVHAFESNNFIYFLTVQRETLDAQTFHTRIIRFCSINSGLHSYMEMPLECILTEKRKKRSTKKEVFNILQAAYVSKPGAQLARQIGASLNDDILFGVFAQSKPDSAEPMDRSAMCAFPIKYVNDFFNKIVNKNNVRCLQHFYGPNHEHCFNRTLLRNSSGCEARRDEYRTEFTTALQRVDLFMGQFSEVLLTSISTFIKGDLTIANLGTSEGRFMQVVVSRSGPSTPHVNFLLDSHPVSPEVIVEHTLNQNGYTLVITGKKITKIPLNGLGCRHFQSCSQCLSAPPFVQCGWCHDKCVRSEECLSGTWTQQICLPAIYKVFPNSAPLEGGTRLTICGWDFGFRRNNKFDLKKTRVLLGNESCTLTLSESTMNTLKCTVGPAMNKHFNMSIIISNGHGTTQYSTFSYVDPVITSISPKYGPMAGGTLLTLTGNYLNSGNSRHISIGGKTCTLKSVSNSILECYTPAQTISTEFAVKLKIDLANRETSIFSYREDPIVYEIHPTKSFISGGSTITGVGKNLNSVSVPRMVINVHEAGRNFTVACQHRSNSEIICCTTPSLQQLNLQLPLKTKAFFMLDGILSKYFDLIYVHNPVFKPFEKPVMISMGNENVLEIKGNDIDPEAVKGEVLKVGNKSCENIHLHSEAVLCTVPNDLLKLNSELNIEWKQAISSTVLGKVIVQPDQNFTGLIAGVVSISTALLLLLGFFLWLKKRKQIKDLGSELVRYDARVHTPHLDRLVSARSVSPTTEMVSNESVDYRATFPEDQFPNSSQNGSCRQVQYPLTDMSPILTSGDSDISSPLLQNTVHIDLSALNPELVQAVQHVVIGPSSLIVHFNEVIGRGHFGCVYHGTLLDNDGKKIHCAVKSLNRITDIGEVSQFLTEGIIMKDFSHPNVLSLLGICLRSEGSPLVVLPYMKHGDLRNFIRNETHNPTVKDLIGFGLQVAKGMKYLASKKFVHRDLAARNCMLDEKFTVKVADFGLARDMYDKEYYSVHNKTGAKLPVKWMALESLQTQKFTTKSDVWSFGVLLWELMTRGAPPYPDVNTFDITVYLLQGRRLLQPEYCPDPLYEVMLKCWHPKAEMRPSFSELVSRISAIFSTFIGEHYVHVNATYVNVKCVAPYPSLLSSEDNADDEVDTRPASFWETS

Chain of Macrophage-stimulating protein receptor (Q04912 25-304 limits assumed): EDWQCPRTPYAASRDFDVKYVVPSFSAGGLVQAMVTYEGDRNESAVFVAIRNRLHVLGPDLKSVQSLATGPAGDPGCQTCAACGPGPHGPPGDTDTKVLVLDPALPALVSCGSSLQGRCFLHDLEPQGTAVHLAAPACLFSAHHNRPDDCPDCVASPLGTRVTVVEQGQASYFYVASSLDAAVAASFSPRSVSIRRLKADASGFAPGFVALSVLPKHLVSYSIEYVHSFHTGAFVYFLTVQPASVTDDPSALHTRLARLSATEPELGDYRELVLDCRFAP
Chain of Macrophage-stimulating protein receptor (Q04912 310-1400 limits assumed): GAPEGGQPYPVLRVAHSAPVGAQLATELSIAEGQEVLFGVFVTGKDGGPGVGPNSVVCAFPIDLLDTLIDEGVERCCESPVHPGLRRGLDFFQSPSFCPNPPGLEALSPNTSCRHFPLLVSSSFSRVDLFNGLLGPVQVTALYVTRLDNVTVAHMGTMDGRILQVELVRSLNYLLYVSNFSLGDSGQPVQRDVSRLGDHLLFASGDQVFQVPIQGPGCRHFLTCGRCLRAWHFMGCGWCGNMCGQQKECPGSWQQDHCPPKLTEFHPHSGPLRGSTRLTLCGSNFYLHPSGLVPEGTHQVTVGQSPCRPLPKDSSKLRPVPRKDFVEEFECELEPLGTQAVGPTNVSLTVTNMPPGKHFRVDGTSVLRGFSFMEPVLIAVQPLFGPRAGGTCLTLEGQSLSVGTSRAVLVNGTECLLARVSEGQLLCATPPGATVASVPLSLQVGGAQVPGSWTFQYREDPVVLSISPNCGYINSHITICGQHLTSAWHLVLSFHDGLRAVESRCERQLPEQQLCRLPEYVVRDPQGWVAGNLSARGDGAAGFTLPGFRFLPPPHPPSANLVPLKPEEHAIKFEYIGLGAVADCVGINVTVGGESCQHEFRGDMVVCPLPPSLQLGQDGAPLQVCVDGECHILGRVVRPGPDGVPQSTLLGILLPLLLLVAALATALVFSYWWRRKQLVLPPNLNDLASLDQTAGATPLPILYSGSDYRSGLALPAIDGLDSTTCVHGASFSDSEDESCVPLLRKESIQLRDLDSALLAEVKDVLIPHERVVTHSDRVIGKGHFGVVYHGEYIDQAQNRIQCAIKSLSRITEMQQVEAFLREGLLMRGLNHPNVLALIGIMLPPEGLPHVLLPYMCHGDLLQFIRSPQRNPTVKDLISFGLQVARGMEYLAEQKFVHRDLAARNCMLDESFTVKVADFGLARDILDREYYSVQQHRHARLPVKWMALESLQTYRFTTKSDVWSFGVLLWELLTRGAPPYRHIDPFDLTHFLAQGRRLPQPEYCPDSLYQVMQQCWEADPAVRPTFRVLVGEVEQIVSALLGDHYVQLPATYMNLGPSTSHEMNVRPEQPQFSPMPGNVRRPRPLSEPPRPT

IC50 [1] [nM] | IC50 [2] [nM] | SMILES
101 | – | Cn1cnc(-c2cc3nccc(Oc4ccc(NC(=O)c5cc(-c6ccccc6)n(-c6ccccc6)c5)cc4F)c3s2)c1
27 | – | COc1cccc(-c2c(C(=O)Nc3ccc(Oc4ccnc5cc(-c6cn(C)cn6)sc45)c(F)c3)cnn2-c2ccccc2)c1
– | > 10000 | COc1ccc(-c2c(C(=O)Nc3ccc(Oc4ccnc5cc(-c6cn(C)cn6)sc45)c(F)c3)cnn2-c2ccccc2)cc1
– | > 10000 | Cn1cnc(-c2cc3nccc(Oc4ccc(NC(=O)c5cnn(-c6ccccc6)c5-c5ccncc5)cc4F)c3s2)c1
